Assay [1] relates to HCT-116. As to the kind of experiment: Cytotoxicity against human HCT-116 cells assessed as reduction in cell viability incubated for 24 hrs by MTT assay. The assay is classed as functional, cell-based. To be noted: HCT-116, 24 h. On the technique in general: Tetrazolium dyes change colour on reduction, which living cells bring about.
Assay [2] deals with NCI-H460. As to the kind of experiment: Cytotoxicity against human NCI-H460 cells assessed as reduction in cell viability by MTS assay. The assay is classed as functional, cell-based.
Assay [3] relates to MCF7. Description: Cytotoxicity against human MCF7 cells assessed as reduction in cell viability by MTS assay. Type of assay: functional, cell-based.
Assay [4] concerns SF-268. As to the kind of experiment: Cytotoxicity against human SF-268 cells assessed as reduction in cell viability by MTS assay. Type of assay: functional, cell-based.
Assay [5] deals with MCF7. As to the kind of experiment: Cytotoxicity against human MCF7 cells assessed as reduction in cell viability measured after 48 hrs by MTT assay. To be noted: MCF7, 48 h. Type of assay: functional, cell-based.
Assay [6] is described as follows: Antiproliferative activity against human U373 cells assessed as inhibition of cell growth measured after 72 hrs by CTG assay. Type of assay: functional, cell-based. To be noted: U373 MG.
For assay [7], the system named is SK-MEL-28. As to the kind of experiment: Cytotoxicity against human SK-MEL-28 cells assessed as inhibition of cell growth incubated for 72 hrs by MTT assay. The assay is classed as functional, cell-based. The settings on record: SK-MEL-28, 72 h.
Assay [8] deals with HepG2. Description: Antiproliferative activity against human HepG2 cells assessed as reduction in cell viability incubated for 72 hrs by CCK-8 assay. Type of assay: functional, cell-based. To be noted: HepG2, 72 h.
The subject of assay [9] is A549. As to the kind of experiment: Antiproliferative activity against human A549 cells assessed as cell growth inhibition. Type of assay: functional, cell-based.
The subject of assay [10] is MCF7. As to the kind of experiment: Antiproliferative activity against human MCF7 cells assessed as reduction in cell viability incubated for 48 hrs by MTT assay. The assay is classed as functional, cell-based. To be noted: MCF7, 48 h.
The subject of assay [11] is SNU1. Description: Cytotoxicity against human SNU1 cells assessed as inhibition of cell growth measured after 72 hrs by cell titer glo assay. The assay is classed as functional, cell-based. To be noted: SNU1, 72 h. A general note: ATP-based viability assays read luminescence as a measure of living cells.
The subject of assay [12] is AGS. As to the kind of experiment: Cytotoxicity against human AGS cells assessed as reduction in cell viability incubated for 48 hrs by MTT assay. Type of assay: functional, cell-based.
Assay [13] relates to PC-3. As to the kind of experiment: Cytotoxicity against human PC-3 cells assessed as inhibition of cell growth. Type of assay: functional, cell-based.
In assay [14] the test system is SK-MEL-28. Description: Cytotoxicity against human SK-MEL-28 cells assessed as reduction in cell growth. The assay is classed as functional, cell-based.
Assay [15] is described as follows: Antiproliferative activity against human U373 cells assessed as reduction in cell viability. The assay is classed as functional, cell-based. The settings on record: U373 MG.
Assay [16] concerns MCF7. As to the kind of experiment: Cytotoxicity against human MCF7 assessed as reduction in cell viability incubated for 24 hrs by MTT assay. To be noted: MCF7, 24 h. The assay is classed as functional, cell-based.
Assay [17] concerns A549. As to the kind of experiment: Cytotoxicity against human A549 cells assessed as inhibition of cell growth measured after 72 hrs by MTT assay. To be noted: A549, 72 h. Type of assay: functional, cell-based.
The test system of assay [18] is Hs 683. Description: Cytotoxicity against human Hs 683 cells assessed as reduction in cell viability by MTT assay. Type of assay: functional, cell-based.
Assay [19] concerns P388. As to the kind of experiment: Cytotoxicity against mouse P388 cells assessed as reduction in cell growth. Type of assay: functional. The settings on record: read-out: ED50 (the source's name).
Assay [20] concerns HCT-116. Description: Antiproliferative activity against human HCT-116 cells assessed as reduction in cell growth incubated for 24 hrs by MTT assay. The assay is classed as functional, cell-based. To be noted: HCT-116, 24 h.
The subject of assay [21] is A549. Description: Cytotoxicity against human A549 cells assessed as reduction in cell viability incubated for 24 hrs by MTT based colorimetric assay. Type of assay: functional. The settings on record: A549, 24 h.
For assay [22], the system named is A-375. Description: Cytotoxicity against human A-375 cells assessed as reduction in cell growth by MTT based colorimetric assay. Type of assay: functional.
Assay [23] deals with HCT-116. As to the kind of experiment: Cytotoxicity against human HCT-116 cells assessed as reduction in cell growth by MTT based colorimetric assay. The assay is classed as functional.
Assay [24] relates to HepG2. Description: Cytotoxicity against human HepG2 cells assessed as reduction in cell growth by MTT based colorimetric assay. The assay is classed as functional.
Assay [25] has as its system HCT-116. As to the kind of experiment: Cytotoxicity against human HCT-116 cells assessed as reduction in cell growth incubated for 48 hrs by MTT assay. The settings on record: HCT-116, 48 h. Type of assay: functional, cell-based.
The test system of assay [26] is A-375. Description: Cytotoxicity against human A-375 cells assessed as reduction in cell growth incubated for 48 hrs by MTT assay. The assay is classed as functional, cell-based. The settings on record: A-375, 48 h.
The test system of assay [27] is HepG2. As to the kind of experiment: Cytotoxicity against human HepG2 cells assessed as cell growth inhibition measured after 48 hrs by MTT assay. The assay is classed as functional, cell-based. To be noted: HepG2, 48 h.
The test system of assay [28] is A549. As to the kind of experiment: Antiproliferative activity against human A549 cells assessed as cell growth inhibition measured after 72 hrs by MTT assay. The assay is classed as functional, cell-based. The settings on record: A549, 72 h.
Assay [29] has as its target Indoleamine 2,3-dioxygenase 1 (Homo sapiens, UniProt P14902). As to the kind of experiment: Inhibition of IDO1 in human HeLa cells. Type of assay: cell-based.
The target in assay [30] is Tryptophan 2,3-dioxygenase (Homo sapiens, UniProt P48775). As to the kind of experiment: Inhibition of TDO (unknown origin) expressed in HEK293 cells. The assay is classed as cell-based.
Tryptophan 2,3-dioxygenase, sequence (P48775 whole entry): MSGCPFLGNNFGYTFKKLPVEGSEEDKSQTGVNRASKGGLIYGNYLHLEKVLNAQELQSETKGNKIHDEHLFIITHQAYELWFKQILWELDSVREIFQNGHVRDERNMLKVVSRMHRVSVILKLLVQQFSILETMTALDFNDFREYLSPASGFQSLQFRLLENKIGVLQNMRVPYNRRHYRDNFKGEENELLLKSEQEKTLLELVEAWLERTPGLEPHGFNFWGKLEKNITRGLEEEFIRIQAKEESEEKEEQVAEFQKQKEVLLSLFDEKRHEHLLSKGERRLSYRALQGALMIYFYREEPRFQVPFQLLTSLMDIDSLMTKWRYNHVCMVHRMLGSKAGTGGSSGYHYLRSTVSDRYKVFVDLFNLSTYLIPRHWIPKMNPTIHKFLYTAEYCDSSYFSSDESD

In brackets after ≈: the same amount, converted by molar mass. Some results are limits rather than exact numbers.

Indoleamine 2,3-dioxygenase 1, sequence (P14902 whole entry): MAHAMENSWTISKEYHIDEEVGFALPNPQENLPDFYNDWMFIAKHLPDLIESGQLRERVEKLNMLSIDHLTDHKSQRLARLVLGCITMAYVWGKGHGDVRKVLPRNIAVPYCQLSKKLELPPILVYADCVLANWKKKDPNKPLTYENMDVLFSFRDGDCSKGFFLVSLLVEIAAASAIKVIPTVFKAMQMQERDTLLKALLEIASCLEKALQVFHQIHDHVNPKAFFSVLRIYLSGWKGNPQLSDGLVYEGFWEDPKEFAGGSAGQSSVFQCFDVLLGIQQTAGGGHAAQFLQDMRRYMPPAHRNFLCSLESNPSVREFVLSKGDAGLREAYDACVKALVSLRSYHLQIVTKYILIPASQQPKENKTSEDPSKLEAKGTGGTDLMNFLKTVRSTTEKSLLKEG

What is called IC50 is the concentration that gives 50% inhibition. Take `O=Cc1c(-c2nc3ccccc3c(=O)[nH]2)[nH]c2ccccc12`: the IC50 in assay [1] was found to be 12.1 µM.

On to `O=C1OCC23Nc4ccccc4C(=O)N2c2ccccc2C13` (centres undefined), for which the IC50 in assay [2], in assay [3] and in assay [4] was above 50 µM throughout.

Turning to `CC(=O)O[C@H](c1nc2ccccc2c(=O)n1[C@@H]1C[C@]2(OC1=O)c1ccccc1N1C(=O)C(C)(C)N(O)[C@H]12)C(C)C` [TRYPTOQUIVALINE], in assay [5], the IC50 worked out at 72 µM.

As to `CC1(C)C(=O)N2c3ccccc3[C@@]3(C[C@@H](n4cnc5ccccc5c4=O)C(=O)O3)[C@@H]2N1C=O`, the IC50 was above 100 µM in assay [6]; above 100 µM in assay [7]; 235 µM in assay [8]; above 100 µM in assay [9]; 91 µM in assay [10].

As to `O=C(C[C@H]1NCCC[C@@H]1O)Cn1cnc2ccccc2c1=O`, the IC50 turned out to be 0.05 µg/mL (≈ 0.166 µM) in assay [11] and 0.17 µg/mL (≈ 0.564 µM) in assay [12].

For `COc1ccc2c(=O)n3c(nc2c1)-c1[nH]c2ccccc2c1CC3`, in assay [13], the IC50 was 19.4 µM.

With `O=C1N[C@H]2c3[nH]c4ccccc4c3C[C@@H]1n1c2nc2ccccc2c1=O`, the IC50 amounted to 73 µM in assay [14]; 50 µM in [15]; 43 µM in [16]; 39 µM in assay [17]; 50 µM in [18].

As for `O=C1c2c(O)cccc2-n2c1nc1ccccc1c2=O` [PHAITANTHRIN C], the IC50 in [2], in assay [3] and in assay [4] was above 50 µM in each case.

On to `C[C@@H]1N[C@H]2N(C1=O)c1ccccc1[C@@]2(O)C[C@@H]1C(=O)N[C@H](C)c2nc3ccccc3c(=O)n21`, for which the EC50 in assay [19] was 16 µg/mL (≈ 35.9 µM).

As for `C[C@@H]1N[C@@H]2N(C1=O)c1ccccc1[C@@]21C[C@@H](n2cnc3ccccc3c2=O)C(=O)O1` [FUMITREMORGIN F], the IC50 is 90 µM in assay [6]; above 100 µM in [7]; 202 µM in [20]; 235 µM in assay [8]; above 100 µM in assay [9]; above 100 µM in assay [10].

Take `CC(C)C[C@H]1NC(=O)[C@@H](C[C@]2(O)c3ccccc3N3C(=O)[C@@H](C)N[C@H]32)n2c1nc1ccccc1c2=O`: the IC50 came to 0.54 µM in [21], 160 µM in assay [22], 203 µM in assay [23] and 76 µM in assay [24].

As for `CC(C)[C@@H]1NC(=O)[C@@H](C[C@]2(O)c3ccccc3N3C(=O)[C@H](C)N[C@H]32)n2c1nc1ccccc1c2=O`, the IC50 was determined as 123 µM in assay [25], 169 µM in assay [26], 53 µM in assay [27] and 0.54 µM in assay [28].

On to `O=C1/C(=c2\c3ccccc3n3c(=O)c4ccccc4nc23)Nc2ccccc21` [CANDIDINE], for which the IC50 in assay [2], in [3] and in [4] was above 50 µM each time.

For `CCOC(=O)/C=C/c1ccc2nc3n(c(=O)c2c1)C1C=CC(F)=CC1C3=O` (centres undefined), 0.02 µM corresponded to half-maximal inhibition in [29] (IC50).

`C[C@@H]1N[C@H]2N(C1=O)c1ccccc1[C@@]2(O)C[C@@H]1C(=O)N[C@@H](C)c2nc3ccccc3c(=O)n21` [FUMIQUINAZOLINE A]: the EC50 in assay [19] amounted to 6.1 µg/mL (≈ 13.7 µM).

Regarding `O=C1c2nc3ccc(CCN4CCOCC4)cc3c(=O)n2C2C=CC(F)=CC12` (centres undefined), the IC50 came to 0.07 µM in assay [30] and 0.02 µM in [29].

As to `CO[C@@]1(C)NC(=O)[C@@H](C[C@]2(O)c3ccccc3N3C(=O)[C@H](C)N[C@@H]32)n2c1nc1ccccc1c2=O`, the EC50 in assay [19] was found to be 13.8 µg/mL (≈ 29 µM).

The record behind these values is ChEMBL document CHEMBL5385851, “Natural quinazolinones: From a treasure house to promising anticancer leads” (Eur J Med Chem, 2023).
